This passage reports IC50 results from patent US7781591B2, “Substituted 3-cyanopyridines as protein kinase inhibitors” (Wyeth LLC, priority 2006, dated 2010).

Each structure is given as a SMILES string.

Common to all, as to type: biochemical
Test [1] has as its target T1, human PKCθ full length enzyme (Homo sapiens, UniProt Q04759).
T1 construct: human PKCθ full length enzyme (Panvera Cat# P2996); purchased Panvera P2996
Nature of the test: PKCθ IMAP assay (fluorescence polarization). The following applies: human PKCθ full length enzyme, IMAP; average value; read-out: IC50 PKCθ IMAP.

In test [2] the target is T2, purified recombinant full length PKC theta (Panvera, P2996) (Homo sapiens, UniProt Q04759).
T2 construct: purified recombinant full length PKC theta (Panvera, P2996); purchased Panvera P2996
T2 sequence (Q04759 whole entry): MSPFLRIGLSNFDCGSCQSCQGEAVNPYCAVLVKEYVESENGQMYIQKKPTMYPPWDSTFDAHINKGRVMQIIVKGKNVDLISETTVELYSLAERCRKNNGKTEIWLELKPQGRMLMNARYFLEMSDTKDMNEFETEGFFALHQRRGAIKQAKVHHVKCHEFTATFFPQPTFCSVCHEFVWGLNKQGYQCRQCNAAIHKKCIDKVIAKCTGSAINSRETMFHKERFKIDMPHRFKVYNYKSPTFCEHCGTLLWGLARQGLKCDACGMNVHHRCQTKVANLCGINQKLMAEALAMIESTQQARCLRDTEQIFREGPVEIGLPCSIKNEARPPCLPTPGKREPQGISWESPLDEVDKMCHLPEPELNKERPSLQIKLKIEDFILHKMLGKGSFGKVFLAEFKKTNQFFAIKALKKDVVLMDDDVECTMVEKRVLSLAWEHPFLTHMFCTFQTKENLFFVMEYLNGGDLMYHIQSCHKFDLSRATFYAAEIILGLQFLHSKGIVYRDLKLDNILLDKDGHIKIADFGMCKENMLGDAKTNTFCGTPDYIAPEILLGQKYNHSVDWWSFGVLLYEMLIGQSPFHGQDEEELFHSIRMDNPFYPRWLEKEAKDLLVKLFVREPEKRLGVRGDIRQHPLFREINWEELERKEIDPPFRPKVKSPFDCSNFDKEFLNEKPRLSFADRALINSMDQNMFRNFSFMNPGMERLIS
In words: Radioactive kinase assay for inhibition of full length (FL) PKCθ. Conditions: average value. The method, then: This assay is based on the phosphorylation of a biotinylated substrate by a kinase utilizing radiolabeled ATP (ATP γ P33). The substrate was a biotinylated peptide with a sequence of biotin-[…]-C(O)NH2. […] The assay buffer was composed of 100 mM Hepes, pH7.5, 2 mM MgCl2, 20 mM β-glycerophosphate and 0.008% TritonX 100. A reaction mixture of ATP, ATP γ P33 (PerkinElmer), DTT, and the enzyme was prepared in the assay buffer and added to a 96-well polypropylene plate. The compound (diluted in DMSO in a separate 96-well polypropylene plate) was added to the reaction mixture and incubated at room temperature. Following the incubation, the peptide substrate was added to the reaction mixture to initiate the enzymatic reaction. The reaction was terminated with the addition of a stop solution (100 mM EDTA, 0.2% TritonX100, and 20 mM NaHPO4) and transferred from the assay plate to a washed streptavidin-coated 96-well scintiplate (PerkinElmer). […] Counts were recorded for each well as corrected counts per minute (CCPM). The counts were considered corrected because they were adjusted according to a P33 normalization protocol, which corrects for efficiency and background differences between the instrument detectors (software version 4.40.01).
A Radioactive Kinase Assay for Inhibition of Full Length (FL) PKCθ Inhibitors
This assay differs from what was described above in that the enzyme used was purified recombinant full length PKC theta (Panvera, P2996).

In test [3] the target is T3, purified recombinant active kinase domain of full length PKC theta (amino acids 362-706) (Homo sapiens, UniProt Q04759).
T3 construct: active kinase domain of full length PKC theta (amino acids 362-706)
T3 sequence (Q04759 362-706): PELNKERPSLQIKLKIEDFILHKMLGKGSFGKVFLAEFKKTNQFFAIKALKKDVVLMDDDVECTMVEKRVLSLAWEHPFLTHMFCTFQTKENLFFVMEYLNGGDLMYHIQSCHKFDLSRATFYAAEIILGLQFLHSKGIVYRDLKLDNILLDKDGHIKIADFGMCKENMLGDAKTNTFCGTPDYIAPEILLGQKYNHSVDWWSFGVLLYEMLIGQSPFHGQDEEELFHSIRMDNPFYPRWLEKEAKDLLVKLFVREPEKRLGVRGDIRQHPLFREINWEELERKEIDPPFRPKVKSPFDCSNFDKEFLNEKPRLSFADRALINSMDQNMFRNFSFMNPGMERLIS
Nature of the test: Radioactive kinase assay for inhibition of the active kinase domain (KD) of PKCθ. Conditions: active kinase domain of PKC theta (amino acids 362-706), average value, read-out: IC50 PKCθKD. The method, then:
A Radioactive Kinase Assay for Inhibition of the Active Kinase Domain (KD) of PKCθ
This assay is based on the phosphorylation of a biotinylated substrate by a kinase utilizing radiolabeled ATP (ATP γ P33). The substrate was a biotinylated peptide with a sequence of biotin-[…]-C(O)NH2. The enzyme was purified recombinant active kinase domain of full length PKC theta (amino acids 362-706). The assay buffer was composed of 100 mM Hepes, pH7.5, 2 mM MgCl2, 20 mM β-glycerophosphate and 0.008% TritonX 100. A reaction mixture of ATP, ATP γ P33 (PerkinElmer), DTT, and the enzyme was prepared in the assay buffer and added to a 96-well polypropylene plate. The compound (diluted in DMSO in a separate 96-well polypropylene plate) was added to the reaction mixture and incubated at room temperature. Following the incubation, the peptide substrate was added to the reaction mixture to initiate the enzymatic reaction. The reaction was terminated with the addition of a stop solution (100 mM EDTA, 0.2% TritonX100, and 20 mM NaHPO4) and transferred from the assay plate to a washed streptavidin-coated 96-well scintiplate (PerkinElmer). The scintiplate was incubated at room temperature, washed in PBS with 0.1% TritonX 100, and counted in the 1450 Microbeta Trilux (Wallac, Version 2.60). Counts were recorded for each well as corrected counts per minute (CCPM). The counts were considered corrected because they were adjusted according to a P33 normalization protocol, which corrects for efficiency and background differences between the instrument detectors (software version 4.40.01).

T1 sequence (Q04759 whole entry): as the sequence (Q04759 whole entry) above

As to `COc1ccc(-c2cncc(C#N)c2Nc2ccc3[nH]ccc3c2)cc1OC` [Compound 101, 5-(3,4-dimethoxyphenyl)-4-(1H-indol-5-ylamino)nicotinonitrile], the IC50 in test [1] was found to be 140 nM; in test [2] it was 83 nM; in test [3], 140 nM.
As to `COc1ccc(-c2cncc(C#N)c2Nc2ccc3cc[nH]c3c2)cc1OC` [Compound 108, 5-(3,4-dimethoxyphenyl)-4-(1H-indol-6-ylamino)nicotinonitrile], the results for the IC50 in test [1], in test [2] and in test [3] were 450 nM, 2250 nM and 1010 nM, respectively.
The matching figures for `COc1ccc(-c2cncc(C#N)c2Nc2cccc3[nH]ccc23)cc1OC` [Compound 109, 5-(3,4-dimethoxyphenyl)-4-(1H-indol-4-ylamino)nicotinonitrile]: 13 nM, 40 nM and 150 nM.
On to `COc1ccc(-c2cncc(C#N)c2Nc2cccc3nsnc23)cc1OC` [Compound 102, 4-(2,1,3-benzothiadiazol-4-ylamino)-5-(3,4-dimethoxyphenyl)nicotinonitrile], for which the IC50 in test [3] is 960 nM.
On the same count and under the same terms, to `COc1ccc(-c2cncc(C#N)c2Nc2ccc3c(c2)OCCO3)cc1OC` [Compound 106, 4-(2,3-dihydro-1,4-benzodioxin-6-ylamino)-5-(3,4-dimethoxyphenyl)nicotinonitrile] belongs 11400 nM.

One may read the IC50 as the point on the concentration scale where inhibition reaches its midpoint.
